In patent US20220409617A1, “Drug Formulations and Methods of Treatment for Metabolic Disorders” (The Regents of the University of California, priority 2019, published 2022):

Test system: 3T3-L1 adipocytes
Experiment: Insulin-stimulated 2-deoxyglucose uptake
Assay type: cell-based, mouse
Conditions: 3 h, 893 10 μM, MK-2206 2 μM
Method: 3T3-L1 cells were maintained in DMEM with 10% FBS and 1% penicillin-streptomycin until induced to differentiate. 3T3-L1 pre-adipocytes were differentiated as described in (M. P. Valley, et al., Anal. Biochem. 505: 43-50, 2016, the disclosure of which is incorporated herein by reference) with slight modifications. Briefly, pre-adipocytes were grown to confluence. After 2 d, cells were induced with maintenance media containing 500 μM IBMX (15879, Sigma-Aldrich, St. Louis, Mo.), 1 μM dexamethasone (D4902, Sigma-Aldrich), 5 μg/mL bovine insulin (10516, Sigma-Aldrich), and 5 μM troglitazone (50-115-0786, ApexBio). Media was changed every 2-3 d for 7 d. On day 7 post-induction, media was changed to maintenance media+5 μg/mL bovine insulin. On day 9 post-induction, media was changed to maintenance media. Mature adipocytes were used 12-14 d post-induction for all experiments. LSL-KrasG12D mouse embryonic fibroblasts (MEFs) with and without Cre-mediated deletion of the STOP cassette were obtained from David Tuveson (Cold Spring Harbor Laboratory, Cold Spring Harbor N.Y., USA) in 2000. p53^flox/flox MEFs were derived in house (2015) from C57BL/6 mice using standard techniques and immortalized by transient expression of Cre recombinase and deletion of p53. MEFs were cultured and maintained in DMEM with 10% FBS and 1% penicillin-streptomycin. […]

Question: With `CCCCCCCCc1ccc([C@H]2CCN[C@@H]2CO)cc1.Cl` [compound 893] as the compound, how does the Insulin-stimulated glucose uptake read?
Answer: The Insulin-stimulated glucose uptake was “but not sphingolipid-like compound 893, impeded insulin-stimulated glucose uptake in adipocytes”.
